Test results published in ChEMBL document CHEMBL1817597, “Antifungal thiopeptide cyclothiazomycin B1 exhibits growth inhibition accompanying morphological changes via binding to fungal cell wall chitin” (Bioorg Med Chem, 2011).
Activity calls are given as the source filed them. The rule behind the calls is not given here.

Legend:
Mucor mucedo [1] = assay: Antimicrobial activity against Mucor mucedo IFO 7684 at 100 uM after 24 hrs by broth microdilution method; assay type: functional, organism-based
Mucor mucedo [2] = assay: Induction of morphological changes in Mucor mucedo IFO 7684 assessed as thickening of hyphae at 100 uM after 24 hrs by microscopic analysis; assay type: functional, organism-based
Mucor mucedo [3] = assay: Inhibition of RNA synthesis in Mucor mucedo IFO 7684 assessed as [8-14C]-adenine uptake into acid-insoluble fractions at 0.77 mM after 25 mins by liquid scintillation counting; assay type: functional; settings: IFO 7684, 25 min
Mucor mucedo [4] = assay: Inhibition of DNA synthesis in Mucor mucedo IFO 7684 assessed as [8-14C]-adenine uptake into acid-insoluble fractions at 0.77 mM after 25 mins by liquid scintillation counting; assay type: functional; settings: IFO 7684, 25 min
Mucor mucedo [5] = assay: Antifungal activity against Mucor mucedo IFO 7684 under hyperosmotic shock at 0.081 uM after 2 days by paper disc method; assay type: functional; settings: IFO 7684, 48 h, read-out: DIZ
Fusarium oxysporum [6] = assay: Antifungal activity against Fusarium oxysporum NBRC 5942 under hyperosmotic shock at 0.081 uM after 2 days by paper disc method; assay type: functional; settings: NBRC 5942, 48 h, read-out: DIZ
Mucor mucedo [7] = assay: Antifungal activity against Mucor mucedo IFO 7684 under hypoosmotic shock assessed as increase of fragility of organism at 0.081 uM after 24 hrs measured after distilled water treatment for 10 mins by microscopic analysis; assay type: functional, organism-based
Fusarium oxysporum [8] = assay: Antifungal activity against Fusarium oxysporum NBRC 5942 under hypoosmotic shock assessed as increase of fragility of organism at 0.081 uM after 24 hrs measured after distilled water treatment for 10 mins by microscopic analysis; assay type: functional, organism-based
Mucor mucedo [9] = assay: Inhibition of chitin synthase in Mucor mucedo IFO 7684 assessed as incorporation of GlcNAc from [14C]-UDP-GlcNAc into acid-insoluble fractions at 4 ug/ml after 55 mins by liquid scintillation counting
Mucor mucedo [10] = assay: Effect on cell wall re-generation in Mucor mucedo IFO 7684 spheroplasts under hyperosmotic condition at 0.081 uM up to 24 hrs by microscopic analysis; assay type: functional

For CCCC(=O)Nc1ncnc2c1ncn2[C@@H]1O[C@@H]2COP(=O)(O)O[C@H]2[C@H]1OC(=O)CCC, the Activity (Mucor mucedo [1]) was “inactive” and the Activity (Mucor mucedo [2]) was “inactive”.

CNCCNS(=O)(=O)c1cccc2cnccc12 was tested, and the Activity (Mucor mucedo [1]) was “inactive” and the Activity (Mucor mucedo [2]) was “inactive”.

For O=c1[nH]cc(F)c(=O)[nH]1 [FLUOROURACIL], the inhibition at 770 µM (Mucor mucedo [3]) was 75% and the inhibition at 770 µM (Mucor mucedo [4]) was 61%.

With C[C@@H]([C@H](N)C(=O)N[C@H](C(=O)O)[C@H]1O[C@@H](n2ccc(=O)[nH]c2=O)[C@H](O)[C@@H]1O)[C@H](O)c1ccc(O)cn1 [NIKKOMYCIN] the zone of inhibition at 0.081 µM (Mucor mucedo [5]) was 23 mm, the zone of inhibition at 0.081 µM (Fusarium oxysporum [6]) was 0 mm and the Activity (Mucor mucedo [7]) was “Active”. For the same molecule, the Activity (Fusarium oxysporum [8]) was “Active”, the inhibition (Mucor mucedo [9]) was 69% and the Activity (Mucor mucedo [10]) was “inactive”.
